Results on 50 molecules are retold here after ChEMBL document CHEMBL5604063, “ASAP - DENV-2 NS2B-NS3 protease fluorescence dose response” (2024).

Structures are written as SMILES. “And” between values parts separate entries of the source, which are not always exact repeats. Identical values can stand only once.

The target of assay [1] is T1, Genome polyprotein (dengue virus type 2, UniProt P29990). It counts as functional, Thailand/16681/1984.
In assay [2] the target is T1, Genome polyprotein. It counts as functional, Thailand/16681/1984. This is another data set of the same source.

T1 sequence (P29990 1346-1475 limits assumed): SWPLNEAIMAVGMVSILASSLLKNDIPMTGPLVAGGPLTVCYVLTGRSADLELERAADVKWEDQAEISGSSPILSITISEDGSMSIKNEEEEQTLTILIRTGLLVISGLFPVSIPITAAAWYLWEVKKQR
T1 sequence (P29990 1476-2093 limits assumed): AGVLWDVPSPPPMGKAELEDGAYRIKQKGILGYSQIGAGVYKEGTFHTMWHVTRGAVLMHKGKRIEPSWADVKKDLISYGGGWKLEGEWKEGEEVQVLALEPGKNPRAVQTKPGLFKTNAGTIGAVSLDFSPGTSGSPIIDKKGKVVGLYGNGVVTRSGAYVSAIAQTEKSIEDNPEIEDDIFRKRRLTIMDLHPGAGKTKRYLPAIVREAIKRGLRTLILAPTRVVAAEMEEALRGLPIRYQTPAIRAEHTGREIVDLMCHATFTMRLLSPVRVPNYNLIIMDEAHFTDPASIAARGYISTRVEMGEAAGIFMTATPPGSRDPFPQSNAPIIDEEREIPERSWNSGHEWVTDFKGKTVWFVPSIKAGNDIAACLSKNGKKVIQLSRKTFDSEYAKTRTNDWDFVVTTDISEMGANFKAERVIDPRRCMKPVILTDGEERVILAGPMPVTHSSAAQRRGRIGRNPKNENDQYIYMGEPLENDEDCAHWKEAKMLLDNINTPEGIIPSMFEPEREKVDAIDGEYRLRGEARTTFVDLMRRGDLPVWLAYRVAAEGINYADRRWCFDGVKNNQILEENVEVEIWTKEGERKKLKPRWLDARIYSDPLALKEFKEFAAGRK

For orientation: IC50 means the concentration needed to halve the response being measured. With `COc1cc(Br)cc(C(=O)Nc2ccc3c(c2)CNC3)c1`, the results for the IC50 on Genome polyprotein [1] and at Genome polyprotein [2] were above 100 µM and above 99.5 µM, respectively.
Regarding `O=C1NCc2c1cccc2C(=O)Nc1ccc2c(c1)CNC2`, the figures for the half-inhibitory concentration (IC50) against Genome polyprotein [1] and against Genome polyprotein [2] were above 100 µM and above 99.5 µM, respectively.
`O=C(NCC(F)F)[C@H](Nc1ccc2c(c1)CNC2)c1cc(Cl)cc(C2CC2)c1`: the IC50 on Genome polyprotein [1] was above 100 µM; against Genome polyprotein [2], above 99.5 µM.
`CCCN1C(=O)[C@](C#N)(Nc2cccc(-c3nn[nH]n3)c2)c2cc(Cl)ccc21`: the figures for the IC50 at Genome polyprotein [1] and on Genome polyprotein [2] were above 100 µM and above 99.5 µM, respectively.
Take `NCc1ccc(NC(=O)c2cc(Cl)cc3[nH]ncc23)cc1F`: the values for the IC50 at Genome polyprotein [1] and on Genome polyprotein [2] were above 100 µM and above 99.5 µM, respectively.
Turning to `O=c1[nH]c2cc(Cl)ccc2n1Cc1ccc(-c2nn[nH]n2)cc1`, the concentration for half-maximal inhibition (IC50) against Genome polyprotein [1] is above 100 µM; on Genome polyprotein [2], above 99.5 µM.
As to `O=C(Nc1ccc2c(c1)CNC2)c1cnnc2ccccc12`, the IC50 against Genome polyprotein [1] is above 100 µM; on Genome polyprotein [2], above 99.5 µM.
The matching figures for `C[C@H]1NCCc2c(-c3ccc4[nH]c(C(=O)O)cc4c3)cc(F)cc21`: above 100 µM and above 99.5 µM.
Take `CCOC(=O)N1CCC[C@H]1c1cccc(-c2ccc3[nH]c(C(=O)O)cc3c2)c1`: the values for the half-maximal inhibitory concentration (IC50) against Genome polyprotein [1] and on Genome polyprotein [2] were above 100 µM and above 99.5 µM, respectively.
`Cn1nc(C2CC2)cc1C(=O)Nc1cc(CCCN)ccn1`: the IC50 against Genome polyprotein [1] is above 100 µM; on Genome polyprotein [2], above 99.5 µM.
Turning to `NS(=O)(=O)c1ccc(C(F)F)cc1-c1ccc2[nH]c(C(=O)O)cc2c1`, the IC50 was above 100 µM against Genome polyprotein [1] and above 99.5 µM on Genome polyprotein [2].
For `O=C(Nc1ccc2c(c1)CNC2)[C@H]1CCCc2[nH]ncc21`, the IC50 against Genome polyprotein [1] is above 100 µM; on Genome polyprotein [2] it was above 99.5 µM.
The matching figures for `Cc1nc(C2CC2)sc1C(=O)Nc1cc(CCCN)ccn1`: above 100 µM and above 99.5 µM.
Turning to `O=C(Nc1ccc2c(c1)CNC2)c1ncnc2sccc12`, the IC50 against Genome polyprotein [1] was above 100 µM; at Genome polyprotein [2], above 99.5 µM.
As to `O=C(Nc1cc(Cl)cc(-c2ccc(C3(C(=O)O)CCNCC3)cc2)c1)OCc1ccccc1`, the half-maximal inhibitory concentration (IC50) was above 100 µM against Genome polyprotein [1] and above 99.5 µM on Genome polyprotein [2].
As to `N[C@H]1CCc2ccc(NC(=O)c3cc(Cl)cc4[nH]ncc34)cc21`, the IC50 at Genome polyprotein [1] is above 100 µM; at Genome polyprotein [2] it was above 99.5 µM.
With `O=C(O)C1CCC2(CC1)CC(Cc1c[nH]c3ccc(Cl)cc13)C2` (stereo not given), the half-inhibitory concentration (IC50) was found to be 31.4 µM against Genome polyprotein [1] and 59.2 µM against Genome polyprotein [2].
The matching figures for `Cc1cc(-c2ccc3[nH]c(C(=O)O)cc3c2)c(=O)n(Cc2ccccc2)c1`: above 100 µM and above 99.5 µM.
`O=C(O)c1ccc2nc(Cc3c[nH]c4ccc(Cl)cc34)cn2c1`: the 50% inhibitory concentration (IC50) against Genome polyprotein [1] was above 100 µM; against Genome polyprotein [2], above 99.5 µM.
For the molecule `N#Cc1ccc2[nH]cc(Cc3ccc(-c4nnn[nH]4)cc3)c2c1`, the IC50 against Genome polyprotein [1] is 83.8 µM; against Genome polyprotein [2], above 99.5 µM.
As for `Cn1ccc(-c2cc(CN)cc([C@@H]3C[C@H]3c3cc(Cl)cc(NC(=O)OCc4ccccc4)c3)c2)n1`, the half-maximal inhibitory concentration (IC50) is above 100 µM at Genome polyprotein [1] and 62.7 µM on Genome polyprotein [2].
Consider `CC(C)(C)OC(=O)Cc1cc(CN)cc(NC(=O)c2cc(Cl)cc(NC(=O)OCc3ccccc3)c2)c1`, for which the IC50 was above 100 µM at Genome polyprotein [1] and above 99.5 µM on Genome polyprotein [2].
Turning to `Clc1cc(CNc2ccc3c(c2)CNC3)c2cn[nH]c2c1`, the IC50 on Genome polyprotein [1] was above 100 µM; on Genome polyprotein [2], 18.9 µM and 54.9 µM.
Consider `NCc1cc(C(F)(F)F)cc(-c2ccc3[nH]c(C(=O)O)cc3c2)n1`, for which the IC50 was above 100 µM against Genome polyprotein [1] and above 99.5 µM on Genome polyprotein [2].
The matching figures for `C(#C[C@H](Nc1ccc2c(c1)CNC2)c1cccc2[nH]ncc12)c1ccccc1`: above 100 µM and above 99.5 µM.
As for `O=C(O)c1cc2cc(-c3cc(Cl)cn4ncnc34)ccc2[nH]1`, the IC50 is above 100 µM on Genome polyprotein [1] and above 99.5 µM on Genome polyprotein [2].
With `O=C(Nc1ccc2c(c1)COC2)c1cc(Cl)cc2[nH]ncc12`, the figures for the IC50 at Genome polyprotein [1] and against Genome polyprotein [2] were above 100 µM and above 99.5 µM, respectively.
For the molecule `O=C(Nc1ccc2c(c1)CN(CC(F)F)C2)c1cc(Cl)cc2[nH]ncc12`, the results for the concentration for half-maximal inhibition (IC50) against Genome polyprotein [1] and against Genome polyprotein [2] were above 100 µM and 58.7 µM, respectively.
Take `NCc1ccc(NC(=O)c2cc(Cl)cc3[nH]ncc23)cc1`: the figures for the IC50 at Genome polyprotein [1] and on Genome polyprotein [2] were above 100 µM and above 99.5 µM, respectively.
Regarding `NCc1cc(NC(=O)c2cc(Cl)cc(NC(=O)OCc3ccccc3)c2)cc(-c2ccc3c(c2)C[C@H](C(=O)O)CO3)c1`, the half-maximal inhibitory concentration (IC50) against Genome polyprotein [1] is above 100 µM; against Genome polyprotein [2] it was 77.2 µM.
The matching figures for `O=C(O)c1cc2cc(-c3cccc([C@H]4CCOC4)n3)ccc2[nH]1`: above 100 µM and above 99.5 µM.
The matching figures for `NCCc1cccc(NC(=O)c2cc(Cl)cc3[nH]ncc23)c1`: above 100 µM and above 99.5 µM.
The matching figures for `O=C(c1cc(Cl)cc2[nH]ncc12)N1CC[C@]2(CCNC2)C1`: above 100 µM and above 99.5 µM.
Regarding `CNC(=O)[C@]1(Nc2ccc3c(c2)CNC3)C(=O)Nc2c(OC)cc(Br)cc21`, the IC50 is above 100 µM at Genome polyprotein [1] and above 99.5 µM against Genome polyprotein [2].
Turning to `NCc1cc(-c2ccncc2)cc([C@@H]2C[C@H]2c2cc(Cl)cc(NC(=O)OCc3ccccc3)c2)c1`, the values for the IC50 against Genome polyprotein [1] and on Genome polyprotein [2] were above 100 µM and above 99.5 µM, respectively.
As for `CC(=O)Nc1cc(Br)cc(C(=O)Nc2ccc3c(c2)CNC3)c1`, the IC50 is above 100 µM against Genome polyprotein [1] and above 99.5 µM against Genome polyprotein [2].
The matching figures for `O=C(O)c1ccc(NC(=O)c2cc(Cl)cc3[nH]ncc23)cc1`: above 100 µM and above 99.5 µM.
Regarding `N#C[C@H](Nc1cc(Cl)cc(C2CC2)c1)c1ccc(-c2nn[nH]n2)cc1`, the IC50 was found to be 17.9 µM against Genome polyprotein [1] and 27.2 µM on Genome polyprotein [2].
For `O=C(Nc1ccc2c(c1)CNC2)c1cc(Br)cc2cccnc12`, the 50% inhibitory concentration (IC50) at Genome polyprotein [1] is above 100 µM; against Genome polyprotein [2] it was above 99.5 µM.
Turning to `O=C(Nc1ccc2c(c1)CNC2)c1ccc(OCC(F)(F)F)nc1`, the results for the IC50 against Genome polyprotein [1] and against Genome polyprotein [2] were above 100 µM and above 99.5 µM, respectively.
As for `O=C(O)Cc1cn2nc(-c3cc(Cl)cc(NC(=O)OCc4ccccc4)c3)ccc2n1`, the figures for the IC50 at Genome polyprotein [1] and against Genome polyprotein [2] were above 100 µM and above 99.5 µM, respectively.
`O=C(O)c1cc2cc(-c3cc(Cl)cc4c3O[C@H](CO)C4)ccc2[nH]1`: the results for the half-maximal inhibitory concentration (IC50) against Genome polyprotein [1] and against Genome polyprotein [2] were above 100 µM and above 99.5 µM, respectively.
`CCc1nc2ccc(Cl)cc2n1Cc1ccc2c(c1)CNC2`: the IC50 was above 100 µM on Genome polyprotein [1] and above 99.5 µM against Genome polyprotein [2].
Take `CC(C)(C)c1[nH]c2ccc(F)cc2c1Cc1ccc(-c2nnn[nH]2)cc1`: the IC50 against Genome polyprotein [1] turned out to be 12.1 µM; against Genome polyprotein [2] it was 23.6 µM.
Turning to `O=C(O)Cn1nc2ccc(-c3cc(Cl)cc(NC(=O)OCc4ccccc4)c3)nn2c1=O`, the IC50 against Genome polyprotein [1] is above 100 µM; at Genome polyprotein [2] it was above 99.5 µM.
For `Cc1ccc(Oc2ncccc2C#N)c(-c2ccc3[nH]c(C(=O)O)cc3c2)c1`, the concentration for half-maximal inhibition (IC50) against Genome polyprotein [1] was above 100 µM; against Genome polyprotein [2], 87.2 µM.
In the case of `O=C(Nc1ccc2c(c1)CNC2)c1cncc(N2CCOCC2)c1`, the figures for the IC50 against Genome polyprotein [1] and at Genome polyprotein [2] were above 100 µM and above 99.5 µM, respectively.
The matching figures for `Cc1cc(C#N)cc2c(Cc3ccc(-c4nnn[nH]4)cc3)c[nH]c12`: 35 µM and 74.3 µM.
With `COc1nnc(C(F)(F)F)cc1-c1ccc2[nH]c(C(=O)O)cc2c1`, the IC50 is above 100 µM at Genome polyprotein [1] and above 99.5 µM on Genome polyprotein [2].
Turning to `COCCCN1Cc2ccc(NC(=O)c3cc(Cl)cc4[nH]ncc34)cc2C1`, the half-inhibitory concentration (IC50) at Genome polyprotein [1] was above 100 µM; on Genome polyprotein [2], above 99.5 µM.
